Twelve compounds from patent US12145927B2 (BRISTOL-MYERS SQUIBB COMPANY, priority 2018, dated 2024) can be followed below.

As a reminder, the IC50 is the concentration that gives 50% inhibition.

Structures are written as SMILES. Where only a bound is given, the exact number is not on record here.

In the assay the target is T1, human IDO1 (Homo sapiens, UniProt P14902).
T1 construct: expressed in transfected cells
In words: IDO inhibition assay in human IDO1/HEK293 cells (IDO1 HEK Human). Format: cell-based. The following applies: HEK293 cells stably expressing human IDO1; 20 hours incubation; absorbance at 490 nm after Ehrlich reagent. How it is done:
HEK293 cells were transfected with a pCDNA-based mammalian expression vector harboring human IDO1 cDNA (NM 002164.2) by electroporation. They were cultured in medium (DMEM with 10% FBS) containing 1 mg/ml G418 for two weeks. Clones of HEK293 cells that stably expressed human IDO1 protein were selected and expanded for IDO inhibition assay.
The human IDO1/HEK293 cells were seeded at 10,000 cells per 50 μL per well with RPMI/phenol red free media contains 10% FBS in a 384-well black wall clear bottom tissue culture plate (Matrix Technologies LLC) 100 nL of certain concentration of compound was then added to each well using ECHO liquid handling systems. The cells were incubated for 20 hours in 37° C. incubator with 5% CO2.
The compound treatments were stopped by adding trichloroacetic acid (Sigma-Aldrich) to a final concentration at 0.2%. The cell plate was further incubated at 50° C. for 30 minute. The equal volume supernatant (20 μL) and 0.2% (w/v) Ehrlich reagent (4-dimethylaminobenzaldehyde, Sigma-Aldrich) in glacial acetic acid were mixed in a new clear bottom 384-well plate. This plate was then incubated at RT for 30 minute. The absorbance at 490 nm was measured on Envision plate reader.
Compound IC50 values were calculated using the counts of 500 nM of a reference standard treatment as one hundred percent inhibition, and counts of no compound but DMSO treatment as zero percent inhibition.

T1 sequence (P14902 whole entry): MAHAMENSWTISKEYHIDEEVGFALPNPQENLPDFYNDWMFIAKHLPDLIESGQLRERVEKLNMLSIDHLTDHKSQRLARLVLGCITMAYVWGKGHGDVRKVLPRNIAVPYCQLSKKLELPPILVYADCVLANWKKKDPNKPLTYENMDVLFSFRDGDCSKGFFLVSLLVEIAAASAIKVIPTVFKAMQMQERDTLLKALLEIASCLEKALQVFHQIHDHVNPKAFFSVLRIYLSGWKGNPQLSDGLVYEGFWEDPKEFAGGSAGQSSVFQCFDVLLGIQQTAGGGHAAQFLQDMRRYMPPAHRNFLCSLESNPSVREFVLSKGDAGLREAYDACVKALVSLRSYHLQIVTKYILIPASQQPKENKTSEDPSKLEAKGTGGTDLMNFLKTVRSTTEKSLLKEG

Compound `Cc1ccc(NC(=O)Nc2cc(-c3ccccc3C(=O)O)cc3c2OCCCC3c2ccccc2)cc1` (racemic) [Example 8-1, 2-(5-phenyl-9-(3-(p-tolyl)ureido)-2,3,4,5-tetrahydrobenzo[b]oxepin-7-yl)benzoic acid] showed an IC50 of 27.2 nM.
With `Cc1ccc(NC(=O)Nc2cc(-c3ccccc3-c3nc(=O)o[nH]3)cc3c2OCCCC3C2CC2)cc1` (single isomer, unassigned) [Example 33-2, 1-(5-cyclopropyl-7-(2-(5-oxo-2,5-dihydro-1,2,4-oxadiazol-3-yl)phenyl)-2,3,4,5-tetrahydrobenzo[b]oxepin-9-yl)-3-(p-tolyl)urea] the figure was 8 nM; with `Cc1ccc(CC(=O)Nc2cc(-c3ccccc3-c3nnn[nH]3)cc3c2OCCCC3C2CC2)c(F)c1` (single isomer, unassigned) [39 (En. 1)], more than 6000 nM.
Next, `Cc1ccc(NC(=O)Nc2cc(-c3cc(F)ccc3C(=O)O)cc3c2O[C@H](C)[C@H]3c2ccccc2)cc1` (relative stereo) [Example 116, rel-4-fluoro-2-((2R,3S)-2-methyl-3-phenyl-7-(3-(p-tolyl)ureido)-2,3-dihydrobenzofuran-5-yl)benzoic acid]: 125 nM; `C=CC1Oc2c(NC(=O)Nc3ccc(C)cc3)cc(C3(c4nnn[nH]4)CC3)cc2C1c1ccccc1` (racemic) [Example 112, (+/−)1-(5-(1-(1H-tetrazol-5-yl)cyclopropyl)-3-phenyl-2-vinyl-2,3-dihydrobenzofuran-7-yl)-3-(p-tolyl)urea]: 7900 nM.
With `FC(F)(F)c1cnc(Nc2cc(-c3ccccc3-c3nnn[nH]3)cc3c2OCCCC3c2ccccc2)nc1` (stereo not drawn) [Example 54, N-(7-(2-(1H-tetrazol-5-yl)phenyl)-5-phenyl-2,3,4,5-tetrahydrobenzo[b]oxepin-9-yl)-5-(trifluoromethyl)pyrimidin-2-amine] the figure was 432 nM.
`Cc1ccc(CC(=O)Nc2cc(-c3ccccc3-c3nnn[nH]3)cc3c2OCCCC3C(C)C)cc1` (single isomer, unassigned) [25 (En. 1), N-(7-(2-(1H-tetrazol-5-yl)phenyl)-5-isopropyl-2,3,4,5-tetrahydrobenzo[b]oxepin-9-yl)-2-(p-tolyl)acetamide] displayed an IC50 of 28.6 nM.
Next, `O=C(Nc1ccccc1F)Nc1cc(-c2ccccc2-c2noc(=O)[nH]2)cc2c1OCCCC2C1CC1` (stereo not drawn) [Example 35, 1-(5-cyclopropyl-7-(2-(5-oxo-4,5-dihydro-1,2,4-oxadiazol-3-yl)phenyl)-2,3,4,5-tetrahydrobenzo[b]oxepin-9-yl)-3-(2-fluorophenyl)urea]: 19.7 nM; `O=C(Nc1cc(-c2ccccc2-c2nnn[nH]2)cc2c1OCCCC2c1ccccc1)NC1CC1` (single isomer, unassigned) [23 (En. 2), 1-(7-(2-(1H-tetrazol-5-yl)phenyl)-5-phenyl-2,3,4,5-tetrahydrobenzo[b]oxepin-9-yl)-3-cyclopropylurea]: more than 6000 nM; `Cc1ccc(NC(=O)Nc2cc(-c3ccccc3-c3nnn[nH]3)cc3c2OCCC(C)C3c2ccccc2)cc1` (single isomer, unassigned) [Example 43, 1-(7-(2-(1H-tetrazol-5-yl)phenyl)-4-methyl-5-phenyl-2,3,4,5-tetrahydrobenzo[b]oxepin-9-yl)-3-(p-tolyl)urea]: 30.1 nM.
With `Cc1ccc(CC(=O)Nc2cc(-c3ccccc3-c3nnn[nH]3)cc3c2OCCC(C)C3c2ccccc2)cc1` (single isomer, unassigned) [Example 47, N-(7-(2-(1H-tetrazol-5-yl)phenyl)-4-methyl-5-phenyl-2,3,4,5-tetrahydrobenzo[b]oxepin-9-yl)-2-(p-tolyl)acetamide] the figure was 282 nM; with `C=C[C@@H]1Oc2c(NC(=O)Nc3ccc(C)cc3)cc(-c3ccccc3-c3nnn[nH]3)cc2[C@H]1CCC(F)(F)F` (single isomer, unassigned) [Example 101, 1-((trans)-5-(2-(1H-tetrazol-5-yl)phenyl)-3-(3,3,3-trifluoropropyl)-2-vinyl-2,3-dihydrobenzofuran-7-yl)-3-(p-tolyl)urea], 7.1 nM.
